US9834549B2, “3,3-disubstituted-(8-aza-bicyclo[3.2.1]OCT-8-yl)-[5-(1H-pyrazol-4-yl)-thiophen-3-yl]-methanones as inhibitors of 11 (β)-HSD1” (The University Of Edinburgh, priority 2010, dated 2017)
Like-named read-outs stand apart in the source and are kept apart here. One block for each compound: values may come before it.

Columns and labels:
human 11β-HSD1 = target: T1, human 11β-HSD1 (Homo sapiens, UniProt P28845); experiment: Cellular in vitro 11β-HSD1 enzyme inhibition assay (SPA, HEK293/11β-HSD1 cells); assay type: cell-based; conditions: read-out: IC50 for 11β-HSD1 (HEK293)
T1 construct: stably transfected with a construct containing the full-length gene coding for the human 11β-HSD1 enzyme; expressed in transfected cells; host or cells: HEK293 (stably transfected, HEK293/11β-HSD1)
Method: Compounds were assessed by a Scintillation Proximity Assay (SPA) performed according to the following protocol:
HEK293 cells were stably transfected with a construct containing the full-length gene coding for the human 11β-HSD1 enzyme to create HEK293/11β-HSD1 cells. Cells were routinely cultured in DMEM containing 10% calf foetal serum, 1% glutamine, and 1% penicillin and streptomycin. Prior to assay, cells were plated at 2×10^4 cells/well in 96-well poly-D-Lys coated flat-bottomed microplates and incubated in 5% CO2, 95% O2 at 37° C. for 24 hours. The media in each well was removed immediately before assay.
Compounds to be tested were dissolved in DMSO at 10 mM and serially diluted into water containing 10% DMSO. Diluted compounds at a volume of 10 μL were added to wells of a 96-well V-bottomed microplate. A solution of DMEM, 1% glutamine, 1% penicillin and streptomycin, and 22 nM tritiated cortisone was prepared and 90 μL added to each well of the assay plate. This solution (100 μL/well) was transferred to the plate containing the cells. The plate was then incubated in 5% CO2, 95% O2 at 37° C. for 2 hours.
Following this incubation, 50 μL of the assay solution was transferred to each well of a 96-well scintillation microplate. A mixture consisting of anti-mouse YSi SPA beads, pre-mixed with anti-cortisol antibody in assay buffer (50 mM Tris.HCl, pH 7.0; 300 mM NaCl; 1 mM EDTA, 5% glycerol) was prepared and 50 μL added to each well of the scintillation microplate. An adhesive strip was applied to the microplate and the plate gently shaken for at least 2 hours at room temperature, and then spun briefly on a low speed centrifuge. The plate was read on a scintillation counter suitable for 96-well microplates. For the calculation of percentage inhibition, a series of wells were added to the plate that represented the assay maximum and the assay minimum: one set that contained substrate without cells (minimum) and another set that contained substrate and cells without any compound (maximum).
The calculation of median inhibitory concentration (IC50) values for the compounds was performed using GraphPad Prism® software. Dose-response curves for each compound were plotted as fractional inhibition and data fitted to the four parameter logistic equation.

human 11β-HSD2 = target: T2, human 11β-HSD2 (Homo sapiens, UniProt P80365); experiment: Cellular in vitro 11β-HSD2 enzyme inhibition assay (CHO cells); assay type: cell-based; conditions: CHO cells transfected with human 11β-HSD2
T2 construct: CHO cells stably transfected with the full-length gene coding for human 11β-HSD2 were used; expressed in transfected cells; host or cells: CHO (stably transfected)
T2 sequence (P80365 1-405): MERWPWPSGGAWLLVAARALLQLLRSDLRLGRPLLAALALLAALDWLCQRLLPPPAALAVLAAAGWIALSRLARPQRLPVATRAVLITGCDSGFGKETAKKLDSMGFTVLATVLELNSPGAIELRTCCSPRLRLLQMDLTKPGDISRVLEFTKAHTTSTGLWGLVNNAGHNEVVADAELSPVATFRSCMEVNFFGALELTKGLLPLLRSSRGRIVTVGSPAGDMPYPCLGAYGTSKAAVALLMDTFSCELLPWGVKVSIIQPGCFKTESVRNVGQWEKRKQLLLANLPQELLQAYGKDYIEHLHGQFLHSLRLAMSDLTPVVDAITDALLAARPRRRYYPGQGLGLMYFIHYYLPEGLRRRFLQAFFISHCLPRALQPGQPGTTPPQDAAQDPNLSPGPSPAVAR
Method: For measurement of inhibition of 11β-HSD2, CHO cells stably transfected with the full-length gene coding for human 11β-HSD2 were used. Assays were carried out in 96-well microplates containing 1×10^5 cells/well. Controls and compounds were plated as above, so that the final DMSO concentration in each well was 1%. To initiate the assay, 90 μL of a solution of HAMS F-12 medium containing 1% glutamine, 1% penicillin and streptomycin, and 22 nM tritiated cortisol was added to each well of the assay plate. The plate was then incubated in 5% CO2, 95% O2 at 37° C. for 16 hours.
The assay solutions were transferred to glass tubes and […] added to each tube. Each tube was vortexed thoroughly and the upper layer containing the tritiated steroid transferred to a fresh glass tube. The solvent was evaporated by placing the tubes in a heating block at 65° C. under a stream of nitrogen gas. 20 μL ethanol was added to each of the dried samples and vortexed briefly. Each sample was applied to a silica TLC plate and the plate dried. The plate was placed vertically in a glass tank containing 92% chloroform: 8% ethanol and the solvent allowed to rise up the plate. The plate was dried, placed in an imaging cassette, and overlayed with a tritium imaging plate for 1-2 days. The amount of enzyme inhibition in each sample was determined by measuring the intensity of the substrate and product spots using a phospho-imager. IC50 values for inhibitors were determined as described above for 11β-HSD1.

[1] = HEK293 cells transfected with human 11β-HSD1, first value in cell

T1 sequence (P28845 whole entry): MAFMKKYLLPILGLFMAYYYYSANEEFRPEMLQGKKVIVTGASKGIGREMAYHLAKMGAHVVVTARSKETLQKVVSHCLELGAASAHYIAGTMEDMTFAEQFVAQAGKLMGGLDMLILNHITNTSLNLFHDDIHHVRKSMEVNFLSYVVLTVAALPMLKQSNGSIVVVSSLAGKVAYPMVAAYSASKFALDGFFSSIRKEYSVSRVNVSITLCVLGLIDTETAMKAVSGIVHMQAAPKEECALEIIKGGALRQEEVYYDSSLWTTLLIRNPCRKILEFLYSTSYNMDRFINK

Structure (SMILES): Cc1cccnc1C1(F)CC2CCC(C1)N2C(=O)c1csc(-c2cn[nH]c2)c1 (single isomer, unassigned) [XX-16, [3-Fluoro-3-(3-methyl-pyridin-2-yl)-8-aza-bicyclo[3.2.1]oct-8-yl]-[5-(1H-pyrazol-4-yl)-thiophen-3-yl]-methanone]
IC50 (human 11β-HSD1; HEK293, potency groups): ≤ 0.1 µM
IC50 (human 11β-HSD1; [1]): 0.009 µM
IC50 (human 11β-HSD2): > 10000 nM

Structure (SMILES): O=C(c1csc(-c2cn[nH]c2)c1)N1C2CCC1CC(F)(c1nccs1)C2 (single isomer, unassigned) [XX-34, (3-Fluoro-3-thiazol-2-yl-8-aza-bicyclo[3.2.1]oct-8-yl)-[5-(1H-pyrazol-4-yl)-thiophen-3-yl]-methanone]
IC50 (human 11β-HSD1; HEK293, potency groups): 0.1 to 0.5 µM

Structure (SMILES): O=C(c1csc(-c2cn[nH]c2)c1)N1C2CCC1CC(O)(c1ncccc1F)C2 (stereo not shown) [XX-02]
IC50 (human 11β-HSD1; HEK293, potency groups, μM): 0.5 to 10 µM

Structure (SMILES): O=C(c1csc(-c2cn[nH]c2)c1)N1C2CCC1CC(O)(c1ncccc1Cl)C2 (stereo not shown) [XX-03]
IC50 (human 11β-HSD1; HEK293, potency groups): ≤ 0.1 µM
IC50 (human 11β-HSD1; [1]): 0.012 µM
IC50 (human 11β-HSD2): > 10000 nM

Structure (SMILES): O=C(c1csc(-c2cn[nH]c2)c1)N1C2CCC1CC(O)(c1ccncc1Cl)C2 (stereo not shown) [XX-04]
IC50 (human 11β-HSD1; HEK293, potency groups): ≤ 0.1 µM

Structure (SMILES): COc1cccc(C2(O)CC3CCC(C2)N3C(=O)c2csc(-c3cn[nH]c3)c2)n1 (stereo not shown) [XX-05]
IC50 (human 11β-HSD1; HEK293, potency groups): ≤ 0.1 µM

Structure (SMILES): COc1cccnc1C1(O)CC2CCC(C1)N2C(=O)c1csc(-c2cn[nH]c2)c1 (stereo not shown) [XX-06]
IC50 (human 11β-HSD1; HEK293, potency groups): ≤ 0.1 µM

Structure (SMILES): Cc1cccnc1C1(O)CC2CCC(C1)N2C(=O)c1csc(-c2cn[nH]c2)c1 (stereo not shown) [XX-07]
IC50 (human 11β-HSD1; HEK293, potency groups): ≤ 0.1 µM
IC50 (human 11β-HSD1; [1]): 0.003 µM
IC50 (human 11β-HSD2): > 10000 nM

Structure (SMILES): CN(C)c1cccc(C2(O)CC3CCC(C2)N3C(=O)c2csc(-c3cn[nH]c3)c2)n1 (stereo not shown) [XX-08]
IC50 (human 11β-HSD1; HEK293, potency groups): ≤ 0.1 µM

Structure (SMILES): O=C(c1csc(-c2cn[nH]c2)c1)N1C2CCC1CC(O)(c1ncccc1C(F)(F)F)C2 (stereo not shown) [XX-09]
IC50 (human 11β-HSD1; HEK293, potency groups): ≤ 0.1 µM

Structure (SMILES): COC1(c2ccccn2)CC2CCC(C1)N2C(=O)c1csc(-c2cn[nH]c2)c1 (stereo not shown) [XX-10]
IC50 (human 11β-HSD1; HEK293, potency groups): ≤ 0.1 µM

Structure (SMILES): COC1(c2ncccc2C)CC2CCC(C1)N2C(=O)c1csc(-c2cn[nH]c2)c1 (stereo not shown) [XX-11]
IC50 (human 11β-HSD1; HEK293, potency groups): ≤ 0.1 µM

Structure (SMILES): CCOC1(c2ccccn2)CC2CCC(C1)N2C(=O)c1csc(-c2cn[nH]c2)c1 (stereo not shown) [XX-12]
IC50 (human 11β-HSD1; HEK293, potency groups): ≤ 0.1 µM

IC50 (human 11β-HSD1; HEK293, potency groups): ≤ 0.1 µM
Structure (SMILES): O=C(c1csc(-c2cn[nH]c2)c1)N1C2CCC1CC(F)(c1ccccn1)C2 (stereo not shown) [XX-14]

Structure (SMILES): Cc1cccnc1C1(C#N)CC2CCC(C1)N2C(=O)c1csc(-c2cn[nH]c2)c1 (stereo not shown) [XX-19]
IC50 (human 11β-HSD1; HEK293, potency groups): ≤ 0.1 µM

Structure (SMILES): O=C(c1csc(-c2cn[nH]c2)c1)N1C2CCC1CC(O)(c1ccncn1)C2 (stereo not shown) [XX-21]
IC50 (human 11β-HSD1; HEK293, potency groups, μM): 0.5 to 10 µM

Structure (SMILES): O=C(c1csc(-c2cn[nH]c2)c1)N1C2CCC1CC(O)(c1cncnc1)C2 (stereo not shown) [XX-22]
IC50 (human 11β-HSD1; HEK293, potency groups, μM): 0.5 to 10 µM

Structure (SMILES): O=C(c1csc(-c2cn[nH]c2)c1)N1C2CCC1CC(O)(c1ncncc1Cl)C2 (stereo not shown) [XX-23]
IC50 (human 11β-HSD1; HEK293, potency groups): ≤ 0.1 µM

Structure (SMILES): Cc1nccnc1C1(O)CC2CCC(C1)N2C(=O)c1csc(-c2cn[nH]c2)c1 (stereo not shown) [XX-25]
IC50 (human 11β-HSD1; HEK293, potency groups): 0.1 to 0.5 µM
